From patent US10961278B2, “Vancomycin derivative, preparation method, pharmaceutical composition and use thereof” (SHANGHAI INSTITUTE OF MATERIA MEDICA, CHINESE ACADEMY OF …, priority 2016, dated 2021)
≈ marks a conversion by molar mass, not a printed value. Entries after “also recorded” stand apart in the source; their conditions may differ. Where two headings read alike, the source gives them in different places.

What was measured:
[1] = In vivo pharmacokinetic assay in mice; settings: for CL_obs / VSS_obs / AUCINF_obs / AUClast / MRTINF_obs / T1/2: male CD-1 mice, intravenous single dose 5 mg/kg; for AUC(0-inf) / AUC(0-t) / MRT inf / half-life: male, CD-1, mouse, in vivo, iv, 5 mg/kg
[2] = test system: vancomycin-sensitive Staphylococcus aureus Newman strain; test: In vitro antibacterial activity assay (MIC, CLSI dilution method); format: cell-based; settings: Staphylococcus aureus, S. aureus Newman, 37° C., 16 h
[3] = test system: vancomycin-middle resistant Staphylococcus aureus Mu50 strain; test: as above; format: cell-based
[4] = test system: Staphylococcus aureus USA300 LAC strain (CA-MRSA); format: in vivo; settings: for in vivo antibacterial activity against methicillin-resistant Staphylococcus aureus, comparison with positive controls: BALB/c mice, 7 mg/kg i.p., 10 days
[5] = male, CD-1, mouse, in vivo, iv, 5 mg/kg
[6] = in vivo; settings: male, CD-1, mouse, iv, 5 mg/kg
[7] = test system: HK-2 cells (human renal proximal tubular epithelial cells); test: Kidney cytotoxicity assay (CCK8 cell viability); format: cell-based; settings: HK-2 cells, 10, 50, 100 μM, 72 h
Method: (§1) Liver and kidney cell viability assays were performed using the Cell Activity Assay Kit CCK8 (Cell Counting Kit-8) method. HK-2 cells (human renal proximal tubular epithelial cells) and HL-7702 cells (human liver cells) in logarithmic growth phase were inoculated to a 96-well culture plate at a suitable density (about 5000 cells), at 100 μL per well. […] Three replicate wells were set for each concentration, and the physiological saline vehicle control well corresponding to each concentration and a well for cell-free zero-adjustment were set. After the treatment, 10 μL of CCK8 detection solution was added into each well, the incubation was performed at 37° C. for about 1.5 h. The optical density (OD value) at 450 nm was measured on a […] microplate reader. The OD value was converted to cell viability value according to the following equation: […] wherein, ODC represents the optical density obtained by different concentrations of the compounds to be tested, C represents the concentration of the compound, and ODC=0 represents the optical density obtained without addition of the compound to be tested.

[8] = test system: HL-7702 cells (human liver cells); test: Liver cytotoxicity assay (CCK8 cell viability); format: cell-based; settings: HL-7702 cells, 10, 50, 100 μM, 72 h
Method: as §1

[9] = Staphylococcus aureus, 16 h, read-out: MIC Mu50
[10] = female BALB/c mice, USA300 LAC retro-orbital, single dose 7 mg/kg intraperitoneally 1 h after infection, after 10 days
[11] = Staphylococcus aureus; S. aureus Mu50, 37° C., 16 h; read-out: MIC Mu50

Row | Compound | CL_obs [1] [mL/min/kg] | VSS_obs [1] [L/kg] | AUC(0-inf) [1] [ng·h/mL] | AUC(0-t) [1] [ng·h/mL] | MRT inf [1] [h] | half-life [1] [h] | MIC [2] [µg/mL] | MIC [3, 9] [µg/mL] | in vivo antibacterial activity against methicillin-resistant Staphylococcus aureus, comparison with positive controls ([4]; 7 mg/kg) | survival rate [4, 10] [%] | AUCINF_obs [1] [ng·h/mL] | AUClast [1] [ng·h/mL] | MRTINF_obs [1] [h] | T1/2 [1] [h] | VSS_obs [5] [L/kg] | MIC [3, 11] [µg/mL] | survival rate ([4]; in vivo, ip, 7 mg/kg) [%] | in vivo antibacterial activity against methicillin-resistant Staphylococcus aureus, comparison with positive controls [4] | also measured
1 | CN[C@H](CC(C)C)C(=O)N[C@H]1C(=O)N[C@@H](CC(N)=O)C(=O)N[C@H]2C(=O)N[C@@H]3C(=O)N[C@H](C(=O)N[C@H](C(=O)O)c4cc(O)c(CNC5C(O)OC(CO)[C@H](O)[C@@H]5O)c(O)c4-c4cc3ccc4O)[C@H](O)c3ccc(c(Cl)c3)Oc3cc2cc(c3O[C@@H]2O[C@H](CO)C(O)C(O)[C@H]2O[C@H]2CC(C)(NCc3ccc(-c4ccc(Cl)cc4)cc3)[C@H](O)[C@H](C)O2)Oc2ccc(cc2Cl)[C@H]1O (some centres unmarked) [Van038] | 7.0 ± 1.38 | 1.754 ± 0.38 | 12200 ± 2490 | 12100 ± 2480 | 4.18 ± 0.34 | 3.81 ± 0.31 | ≤ 0.0625 | 0.125 (≈ 0.0679 µM) | better activity than vancomycin; also recorded: comparable activities with telavancin | 93.3 |  |  |  |  |  |  |  |  | 
2 | CN[C@H](CC(C)C)C(=O)N[C@H]1C(=O)N[C@@H](CC(N)=O)C(=O)N[C@H]2C(=O)N[C@H]3C(=O)N[C@H](C(=O)N[C@H](C(=O)O)c4cc(O)cc(O)c4-c4cc3ccc4O)[C@H](O)c3ccc(c(Cl)c3)Oc3cc2cc(c3O[C@@H]2O[C@H](CO)[C@@H](O)[C@H](O)[C@H]2O[C@H]2C[C@](C)(N)[C@H](O)[C@H](C)O2)Oc2ccc(cc2Cl)[C@H]1O [Vanco., vancomycin] | 68.7 ± 18 |  |  |  |  |  | 2 (≈ 1.38 µM) |  |  |  | 1271 ± 347 | 1242 ± 335 | 0.790 ± 0.26 | 0.597 ± 0.208 | 3.076 ± 0.175 | 8 (≈ 5.52 µM) | 6.6 |  | 
3 | CN[C@H](CC(C)C)C(=O)N[C@H]1C(=O)N[C@@H](CC(N)=O)C(=O)N[C@H]2C(=O)N[C@H]3C(=O)N[C@H](C(=O)N[C@H](C(=O)O)c4cc(O)c(CNCCCNC(=O)[C@H](O)[C@@H](O)[C@H](O)[C@H](O)CO)c(O)c4-c4cc3ccc4O)[C@H](O)c3ccc(c(Cl)c3)Oc3cc2cc(c3OC2O[C@H](CO)C(O)C(O)[C@H]2O[C@@H]2CC(C)[C@@H](O)C(C)(NCc3ccc(-c4ccc(C(F)(F)F)cc4)cc3)C2)Oc2ccc(cc2Cl)[C@H]1O (some centres unmarked) [Van016] |  |  |  |  |  |  |  |  |  | 60.0 |  |  |  |  | 1.826 ± 0.334 |  |  | better activity than vancomycin | AUC(0-inf) [6]: 13400 ± 12700 ng·h/mL; AUC(0-t) [6]: 10700 ± 2060 ng·h/mL; MRT inf [6]: 4.79 ± 0.24 h; half-life [6]: 3.72 ± 0.7 h; CL_obs [5]: 6.4 ± 1.39 mL/min/kg; MIC ([2]; NEWMAN): ≤ 0.0625 µg/mL; MIC ([3]; Staphylococcus aureus, 16 h, S. aureus Mu50, 37° C., read-out: MIC Mu50): 0.25 µg/mL (≈ 0.128 µM)
4 | CN[C@H](CC(C)C)C(=O)N[C@H]1C(=O)N[C@@H](CC(N)=O)C(=O)N[C@H]2C(=O)N[C@H]3C(=O)N[C@H](C(=O)N[C@H](C(=O)O)c4cc(O)c(CNCCO[C@@H]5OC(CO)[C@H](O)C(O)C5O)c(O)c4-c4cc3ccc4O)[C@H](O)c3ccc(c(Cl)c3)Oc3cc2cc(c3OC2O[C@H](CO)C(O)C(O)[C@H]2O[C@@H]2CC(C)[C@@H](O)C(C)(NCc3ccc(-c4ccc(C(F)(F)F)cc4)cc3)C2)Oc2ccc(cc2Cl)[C@H]1O (some centres unmarked) [Van037] | 4.42 ± 1.42 | 1.077 ± 0.449 | 20000 ± 5490 | 16600 ± 4960 | 4.21 ± 2.08 | 2.94 ± 1.39 | ≤ 0.0625 | 0.25 (≈ 0.13 µM) | better activity than vancomycin; also recorded: comparable activities with telavancin | 86.6 |  |  |  |  |  |  |  |  | toxicity in kidney cells [7]: toxicity less than vancomycin and comparable to telavancin; toxicity in liver cells [8]: less toxicity in liver cells than vancomycin and telavancin
5 | CN[C@H](CC(C)C)C(=O)N[C@H]1C(=O)N[C@@H](CC(N)=O)C(=O)N[C@H]2C(=O)N[C@@H]3C(=O)N[C@H](C(=O)N[C@H](C(=O)O)c4cc(O)c(CNC5C(O)OC(CO)[C@H](O)[C@@H]5O)c(O)c4-c4cc3ccc4O)[C@H](O)c3ccc(c(Cl)c3)Oc3cc2cc(c3O[C@@H]2O[C@H](CO)C(O)C(O)[C@H]2O[C@H]2CC(C)(NCc3ccc(-c4ccc(C(F)(F)F)cc4)cc3)[C@H](O)[C@H](C)O2)Oc2ccc(cc2Cl)[C@H]1O (some centres unmarked) [Van032] | 3.45 ± 0.40 | 0.9 ± 0.18 | 24300 ± 2800 | 20100 ± 1710 | 4.41 ± 1.23 | 3.45 ± 1.26 | ≤ 0.0625 | ≤ 0.0625 |  | 73.3 |  |  |  |  |  |  |  | better activity than vancomycin | 
6 | CCCCCCCCCCNCCN[C@@]1(C)C[C@H](O[C@H]2[C@H](Oc3c4cc5cc3Oc3ccc(cc3Cl)[C@@H](O)[C@@H](NC(=O)[C@@H](CC(C)C)NC)C(=O)N[C@@H](CC(N)=O)C(=O)N[C@H]5C(=O)N[C@H]3C(=O)N[C@H](C(=O)N[C@H](C(=O)O)c5cc(O)c(CNCP(=O)(O)O)c(O)c5-c5cc3ccc5O)[C@H](O)c3ccc(c(Cl)c3)O4)O[C@H](CO)[C@@H](O)[C@@H]2O)O[C@@H](C)[C@H]1O [Tela., telavancin, reference compound] | 5.1 ± 1.5 |  |  |  |  |  | < 0.0625 |  |  |  | 17304 ± 5745 | 17143 ± 5611 | 1.71 ± 0.13 | 1.13 ± 0.13 |  | 1 (≈ 0.57 µM) | 93.3 |  | 
